Data on one compound can be found in patent publication US6706686B2, “Inhibition of histone deacetylase as a treatment for cardiac hypertrophy” (The Regents of the University of Colorado, priority 2001, dated 2004).

The structures appear in SMILES notation.

Assay [1] has as its system acetylated lysine residues / Histone H3 in cardiac myocytes. Nature of the assay: Detection of acetylated lysine residues (Western blot, immunofluorescence). In kind it is cell-based, rat. Particulars: exposure for 24 hours. As for the experimental part:
(§1) Cell culture. Ventricular myocytes from one-day-old rats were plated at low density in MEM with 5% calf serum, and studied in serum-free MEM. Cultures were treated with PE (#P6126, Sigma-Aldrich Corp., St. Louis, Mo.), IL-1 (#501-RL, R&D Systems, Minneapolis, Minn.), TSA (#GR-309, BIOMOL Research Laboratories, Inc., Plymouth Meeting, Pa.) or their vehicles (ascorbic acid for PE; bovine serum albumin for IL-1; dimethyl sulfoxide for TSA).
Detection of acetylated lysine residues. Total cell extract was subjected to Western blot analysis using antibodies from Cell Signaling Technology (Beverly, Mass.) (acetylated lysine antibody: #9441, acetylated histone H3 antibody at Lysine 9: #9671, acetylated histone H3 antibody at Lysine 23: #9674, histone H3 antibody: #9712). Nuclear localization of acetylated histone H3 was examined by immunostaining using the same antibodies.
A general note: In western blotting, separated proteins are transferred to a membrane and probed.

Assay [2] deals with cultured cardiac myocytes. Kind of assay: Myocyte growth by 14C-phenylalanine radiolabeled protein content. The class given is cell-based, rat. As for the experimental part:
as §1
(§2) Quantification of myocyte hypertrophy and myocyte-specific mRNA expression. Growth of cultured myocytes was quantified by content of radiolabeled protein after continuous incubation with ^14C-phenylalanine. For evaluation of the myocyte gene program, total RNA was extracted from cells with TRIZol (GIBCO, Carlsbad, Calif.) and used in RNase protection assay with probes for SERCA, α-/β-MyHC, ANP, BNP, and cardiac α-actin. All samples also included glyceraldehyde phosphate dehydrogenase (GAPDH) as an internal control for RNA loading.

Assay [3] relates to SERCA, α-/β-MyHC, ANP, BNP, cardiac α-actin mRNA in cardiac myocytes. Nature of the assay: Myocyte-specific mRNA expression by RNase protection assay. The class given is cell-based, rat. As for the experimental part: FIGS. 1A-C. TSA alters agonist-induced gene repression. Cultured cardiac myocytes were treated with PE (20 μmol/L) or IL-1 (1 ng/mL) for 48 hrs. TSA (30 nmol/L) was added 30 min. prior to treatment with PE or IL-1. Myocyte-specific mRNA expression (SERCA2a (FIG. 1A), αMyHC (FIG. 1B), βMyHC (FIG. 1C) was assayed in 5 μg total RNA by RNase protection assay. Mean data are from 4 cultures, and are presented as % of control after normalization to GAPDH signal.
as §1, §2

The test system of assay [4] is SERCA, αMyHC, βMyHC promoters in cultured myocytes. Nature of the assay: CAT reporter assay of myocyte-specific promoters. In kind it is cell-based, rat. Particulars: TSA 30 nmol/L. The procedure: FIGS. 2A-D. Over-expression of HDACs repress muscle-specific promoters. Cultured myocytes were transfected for 72 hrs. with expression vectors (2 μg per ˜3×10^5 cells) for Flag-tagged HDAC1, 4, 5 (or its backbone vector) and CAT reporter (5 μg) constructs for SERCA (FIG. 2A), αMyHC (FIG. 2B), βMyHC (FIGS. 2C and 2D) genes, plus SV40-driven secreted alkaline phosphatase (SEAP 1 μg, Clontech). TSA was used at 30 nmol/L, and added just after the transfection. PE […] (20 μmol/L) was added 24 hrs. later and CAT assays performed after an additional 48 hours. Mean data are from n=3 different cultures, and are presented as % of pCMV after normalization to SEAP activity in the media. Over-expression of HDAC was confirmed by Western blot for Flag.
Transfection. Myocytes were transfected using calcium-phosphate co-precipitation with cytomegalovirus promoter driven Flag-tagged expression vectors for HDACs 1, 4, 5 and reporter plasmids carrying the rat promoters for SERCA (3500 bp), αMyHC (2900 bp), or βMyHC (3300 bp) driving expression […] of the chroramphenicol acetyltransferase (CAT) gene. Reporter expression was evaluated after 48 hours as described previously with corection for transfection efficiency with SEAP (BD Biosciences Clontech, Palo Alto, Calif.). Over-expression of HDACs was confirmed by Western blot analyses using anti-Flag M2 antibody (Sigma-Aldrich Corp. St. Louis, Mo.).
A general note: In a reporter assay the amount or activity of a reporter protein is the signal.

For assay [5], the system named is ANF in neonatal cardiomyocytes. Nature of the assay: ANF chemiluminescence detection, dose response. The class given is cell-based, rat. The procedure:
FIGS. 4A-C. […] As in the transfection experiments, phenylephrine (100 µM) induces ANF expression over three-fold. […] (FIGS. 4B and 4C) The graphs show a reduction of the chemiluminent detection of ANF in the culture medium with increasing concentrations of the HDAC inhibitors TSA (FIG. 4B) and sodium butyrate (FIG. 4C) when co-cultured with the hypertrophic stimulants FBS, PE or ET-1.
Chemilumenescence. Neonatal cardiomyocytes were seeded onto 96-well plates and treated for 72 hrs. The cells were washed twice in 1×PBS, fixed in 4% paraformaldehyde/1×PBS, and permeabilized with 0.1% Triton-X100. After blocking, the cells were incubated 1 hr. with 10 μg/ml monoclonal anti-ANF antibody (Biodesign). The wells were washed twice with 1% BSA/1× PBS and then incubated for 1 hr. with goat anti-mouse IgG-Fc-HRP (Jackson Labs, […]) at 1:1000 in 1× PBS/1% BSA. Cells were washed twice with 1% BSA/1×PBS, twice with 1× PBS, then blotted dry. Luminol (Pierce, Rockford, Ill.) was added and the chemiluminescence was detected in a Fusion Plate Reader (Perkin Elmer/Packard).

Assay [6] has as its system rat neonatal cardiomyocytes. Nature of the assay: Gene chip array analysis. Particulars: two-or-more-fold difference. In kind it is cell-based. The procedure:
FIGS. 7A-B. TSA induces the activation of genes that are involved in cardiomyocyte differentiation. […] (FIG. 7B) Four genes were inactivated by phenylephrine and activated by TSA (results from one phenylephrine chip, two phenylephrine/TSA chips, and one TSA chip.)
Gene chip and analysis. RNA was isolated using Trizol (Invitrogen, Carlsbad, Calif.) from untreated, phenylephrine-treated, TSA-treated, and phenylephine/TSA co-treated rat neonatal cardiomyocytes. The RNAs were prepared and hybridized on U34A chips (Affymetrix, Inc., Santa Clara, Calif.) according to Affymetrix protocols. The intensity of hybridization was detected by and changes in gene expression were determined and analyzed by Micro Array Suite 5.0 (Affymetrix, Inc., Santa Clara, Calif.).

The subject of assay [7] is ras transformed cells. Particulars: Taunton et al., 1996; cited from earlier work.

Take `CC(/C=C/C(=O)NO)=C\[C@@H](C)C(=O)c1ccc(N(C)C)cc1` [TSA, Trichostatin A]: the “protein acetylation (acetylated lysine residues, Histone H3)” value in assay [1] is listed as “effectively increased acetylated lysine residues”. In assay [2] (inhibitor by itself), the myocyte growth result is reported as “had no effect on myocyte growth”. Also, the “hypertrophic responses to PE and IL-1 (growth)” value in assay [2] (with PE or IL-1) is “enhanced the individual hypertrophic responses to both PE and IL-1”. For the same compound, the “αMyHC (so in the source) expression in presence of IL-1 alone” value in assay [3] (IL-1 alone) is given as “increased αMyHC expression”. The “IL-1 suppression of PE induction of αMyHC (so in the source)” value in assay [3] (PE/IL-1 co-treated cells) is “reversed the IL-1 effect”. Moreover, in assay [3] (TSA 30 nmol/L, 48 hrs), the “basal SERCA2a mRNA expression” value is on record as “increased the basal expression” and the “basal αMyHC mRNA expression” value is “increased the basal expression”. For the same compound, in assay [3] (TSA pre-treatment, IL-1), the “reversal of αMyHC repression in IL-1 treated (or co-treated) cells” value is “less prominent”. Also, in assay [3] (TSA pre-treatment, PE), the “PE effect on αMyHC expression” value is “nearly complete reversal of the PE effect”. Also, the “repression of SERCA expression by hypertrophic stimuli” value in assay [3] (TSA pre-treatment, PE 20 μmol/L or IL-1 1 ng/mL) is given as “substantial reversal in the repression of SERCA expression”. The “gene expression of cardiac α-actin, ANP, or BNP” value in assay [3] (any hypertrophic treatment condition) is “did not affect gene expression”. For the same compound, the “basal expression or PE-induction of αMyHC (so in the source)” value in assay [3] (basal or PE) is “had no effects on either the basal expression or PE-induction”. Also, in assay [4], the “basal SERCA2 promoter activity” value is recorded as “increased the basal promoter activities”, the “basal αMyHC promoter activity” value was “increased the basal promoter activities” and the “basal βMyHC promoter activity” value is on record as “not that of βMyHC”. Further, the “minimal concentration that inhibited the hypertrophic response (ANF) of each growth stimulant” value in assay [5] (FBS, PE, ET-1) is on record as 40 nM. In addition, the “induction of ANF expression by FBS, PE and ET-1” value in assay [5] (increasing concentrations) is given as “countered the induction of ANF expression”. Moreover, the “ANF expression at very low doses” value in assay [5] (very low doses (0.2 nM printed for sodium butyrate)) is reported as “only a marginal increase”. The “expression of big Tau-microtubule-associated protein, ubiquitin carboxyl-terminal hydrolase, Thy-1 cell-surface glycoprotein, MyHC class I antigen” value in assay [6] (genes down-regulated by phenylephrine) is on record as “up-regulated by TSA”. In assay [6] (genes up-regulated by phenylephrine), the “expression of cytochrome oxidase subunit VIII, mouse T-complex protein, insulin growth factor binding protein-3” value was “down-regulated by TSA”. In assay [7], the acetylation entry is on record as “induce hyperacetylation” and the “morphology of ras transformed cells” value is “cause reversion of ras transformed cells to normal morphology”.
